The record followed here is BindingDB's records for doi:10.1016/S0960-894X(01)80539-4 (1994).

pIC50: −log10 of the molar value.

The experiment addresses Sigma-1 receptor (Cavia porcellus). The experiment in a line: In vitro binding affinity towards sigma receptor by the displacement of [3H]PPP from guinea pig brain.

As usually defined, the pIC50 is the negative decadic logarithm of the IC50, by convention in mol/L.

Consider `OC(CCCN1CCN(c2ncc(F)cn2)CC1)C1CCCCC1` (configuration not stated) [1-Cyclohexyl-4-[4-(5-fluoro-pyrimidin-2-yl)-piperazin-1-yl]-butan-1-ol], for which the negative-log IC50 (pIC50) is 7.92.

For `NC(CCCN1CCN(c2ncc(F)cn2)CC1)c1ccc(F)c2ccccc12` (configuration not stated) [1-(4-Fluoro-naphthalen-1-yl)-4-[4-(5-fluoro-pyrimidin-2-yl)-piperazin-1-yl]-butylamine], the negative-log IC50 (pIC50) is 6.67. The figure for `CC(=O)NC(CCCN1CCN(c2ncc(F)cn2)CC1)c1ccc(F)cc1` (configuration not stated) [N-{1-(4-Fluoro-phenyl)-4-[4-(5-fluoro-pyrimidin-2-yl)-piperazin-1-yl]-butyl}-acetamide] is below 7.31; for `O=C(NC(CCCN1CCN(c2ncc(F)cn2)CC1)C1CCCCC1)c1ccc(F)cc1` (configuration not stated) [N-{1-Cyclohexyl-4-[4-(5-fluoro-pyrimidin-2-yl)-piperazin-1-yl]-butyl}-4-fluoro-benzamide] it is below 8.70; for `NC(CCCN1CCN(c2ncc(F)cn2)CC1)C1CCCCC1` (configuration not stated) [1-Cyclohexyl-4-[4-(5-fluoro-pyrimidin-2-yl)-piperazin-1-yl]-butylamine] it is 7.28.

Compound `O=S(=O)(CCCN1CCN(c2ncc(F)cn2)CC1)c1ccc(F)cc1` [5-Fluoro-2-{4-[3-(4-fluoro-benzenesulfonyl)-propyl]-piperazin-1-yl}-pyrimidine] showed a pIC50 below 7.35. The result for `Fc1ccc(CCCCN2CCN(c3ncc(F)cn3)CC2)cc1` [5-Fluoro-2-{4-[4-(4-fluoro-phenyl)-butyl]-piperazin-1-yl}-pyrimidine] reads 7.64; that for `OC(CCCN1CCN(c2ncc(F)cn2)CC1)c1ccc(F)c2ccccc12` (configuration not stated) [1-(4-Fluoro-naphthalen-1-yl)-4-[4-(5-fluoro-pyrimidin-2-yl)-piperazin-1-yl]-butan-1-ol], 7.06; that for `O=C(OC(CCCN1CCN(c2ncc(F)cn2)CC1)c1ccc(F)cc1)c1ccccc1` (configuration not stated) [Benzoic acid 1-(4-fluoro-phenyl)-4-[4-(5-fluoro-pyrimidin-2-yl)-piperazin-1-yl]-butyl ester], 5.46. Consider `Fc1ccc(SCCCN2CCN(c3ncc(F)cn3)CC2)cc1` [5-Fluoro-2-{4-[3-(4-fluoro-phenylsulfanyl)-propyl]-piperazin-1-yl}-pyrimidine], for which the negative logarithm of the IC50 (pIC50) was 7.29. `O=C(NC(CCCN1CCN(c2ncc(F)cn2)CC1)c1ccc(F)cc1)c1ccc(F)cc1` (configuration not stated) [4-Fluoro-N-{1-(4-fluoro-phenyl)-4-[4-(5-fluoro-pyrimidin-2-yl)-piperazin-1-yl]-butyl}-benzamide] showed a pIC50 below 7.00. The compound `Fc1ccc(OCCCN2CCN(c3ncc(F)cn3)CC2)cc1` [5-Fluoro-2-{4-[3-(4-fluoro-phenoxy)-propyl]-piperazin-1-yl}-pyrimidine] showed a pIC50 of 7.05.
